Assay results taken from patent US12428427B2, “Methods and compositions for targeting PD-L1” (Aligos Therapeutics, Inc., priority 2021, dated 2025).

Experiments:
[1] = biological target: PDL1/PD1 (Homo sapiens, UniProt Q9NZQ7); test: PDL1/PD1 Binding Assay; conditions: PDL1-6×His 0.3 nM, PD1-Fc-Avi-Biotin 2.5 nM, Acceptor/Donor beads; read-out: PD-1/PD-L1 PPI IC50
Description: Compounds to be tested were serially diluted in DMSO, and further diluted in assay buffer (25 mM Hepes pH 7.4, 150 mM NaCl, 0.005% Tween 20, BSA 0.01%). Diluted compounds were added to the wells with final concentration of DMSO at 1%. PDL1-6×His protein was added to the wells, mixed well with compound. The plates were incubated for 30 min at room temperature. PD1-Fc-Avi-Biotin protein was added to the wells. Final concentration of PDL1 and PD1 protein is 0.3 nM and 2.5 nM, respectively. After a binding time of 30 min at room temperature, Anti-6×His Acceptor beads (final concentration 20 ug/ml) were added to the wells, and the incubation continued for 1 h. Streptavidin Donor beads (final concentration 20 ug/mL) were added at reduced light. The plates were sealed with foil and incubated in the dark for additional 1 h or overnight before reading on an Envision reader. The IC50 values were determined by fitting the curves using a four-parameter equation in Graphpad Prism 8.

[2] = biological target: T1, PD-1/PD-L1 interaction (Homo sapiens, UniProt Q9NZQ7); test: PD-1/PD-L1 NFAT Reporter Assay; type: cell-based; conditions: co-culture of PD-L1 expressing CHO cells and PD-1 overexpressing Jurkat cells, 6 hrs, NFAT luciferase
T1 construct: expressed in transfected cells; Jurkat cells (PD-1 plus NFAT-luciferase)
Description: Blocking the PD-1/PD-L1 interaction will release the inhibitory signal and results in TCR signaling and NFAT-mediated luciferase activity.
CHO cells expressing surface-bound anti-CD3 antibodies and PD-L1 were first seeded overnight and treated with the compounds. Jurkat cells overexpressing PD-1 and a luciferase construct under NFAT promoter were then immediately seeded on the monolayer of CHO cells. The co-culture was then incubated for 6 hrs at 37° C. Luciferase activity was assessed by adding the ONE-Glo reagent and measuring luminescence with a plate reader. EC50 values were determined from the fit of the dose-response curves.

Chain of PDL1/PD1 (Q9NZQ7 19-238 limits assumed): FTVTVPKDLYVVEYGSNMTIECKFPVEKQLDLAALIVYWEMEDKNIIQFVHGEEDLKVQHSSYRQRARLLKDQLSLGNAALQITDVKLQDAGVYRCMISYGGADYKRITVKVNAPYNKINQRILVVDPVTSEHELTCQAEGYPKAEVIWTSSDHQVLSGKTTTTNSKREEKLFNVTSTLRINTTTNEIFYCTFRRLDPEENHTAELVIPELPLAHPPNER
T1 sequence (Q9NZQ7 19-290): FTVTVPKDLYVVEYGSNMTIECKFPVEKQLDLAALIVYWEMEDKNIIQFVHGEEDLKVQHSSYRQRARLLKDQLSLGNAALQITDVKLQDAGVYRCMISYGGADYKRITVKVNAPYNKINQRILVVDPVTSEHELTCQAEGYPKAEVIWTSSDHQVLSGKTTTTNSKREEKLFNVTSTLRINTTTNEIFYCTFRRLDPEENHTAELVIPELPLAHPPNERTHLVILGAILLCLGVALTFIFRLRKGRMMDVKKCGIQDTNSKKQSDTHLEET

Structure (SMILES)	IC50 [1]	EC50 [2]
COc1nc(-c2cccc(-c3cccc(NC(=O)c4ccnn(C)c4=O)c3Cl)c2Cl)ccc1CN1CCO[C@@H](C(=O)O)C1 [Compound C-30]	≤ 10 nM	100 to 1000 nM
COc1nc(-c2cccc(-c3cccc(NC(=O)c4ccnn(C)c4=O)c3Cl)c2Cl)ccc1CN[C@@H]1CCOC[C@@H]1O [Compound C-1]	≤ 10 nM	> 10000 nM
COc1nc(-c2cccc(-c3cccc(NC(=O)c4ccnn(C)c4=O)c3C)c2Cl)ccc1CNC[C@@H]1CCC(=O)N1 [Compound B-6]	≤ 10 nM	≤ 10 nM
COc1nc(-c2cccc(-c3cccc(NC(=O)c4ccnn(C)c4=O)c3Cl)c2Cl)ccc1CN1CCN(C(=O)OC(C)(C)C)[C@H](C(=O)O)C1 [Compound C-23]	≤ 10 nM	> 5000 nM
COC(=O)C1(F)CN(Cc2ccc(-c3cccc(-c4cccc(NC(=O)c5ccnn(C)c5=O)c4Cl)c3Cl)nc2OC)C1 [Compound C-18]	≤ 10 nM	10 to 100 nM
COc1nc(-c2cccc(-c3cccc(NC(=O)c4ccnn(C)c4=O)c3Cl)c2Cl)ccc1CNCC(C)(C)O [Compound C-5]	≤ 10 nM	10 to 100 nM
COc1nc(-c2cccc(-c3cccc(NC(=O)c4ccnn(C)c4=O)c3Cl)c2Cl)ccc1CN1CC(O)C1 [Compound C-7]	≤ 10 nM	≤ 10 nM

Now from value to compound:

IC50 [1]	EC50 [2]	Structure (SMILES)
≤ 10 nM	100 to 1000 nM	COc1nc(-c2cccc(-c3cccc(NC(=O)c4ccnn(C)c4=O)c3Cl)c2Cl)ccc1CN[C@H]1CCC[C@H]1C(=O)O [Compound C-40]
≤ 10 nM	10 to 100 nM	COc1nc(-c2cccc(-c3cccc(NC(=O)c4ccnn(C)c4=O)c3C)c2Cl)cc(C)c1CN1CC(C(=O)O)C1 [Compound C-91]
≤ 10 nM	10 to 100 nM	COc1nc(-c2cccc(-c3cccc(NC(=O)c4ccnn(C)c4=O)c3Cl)c2Cl)ccc1CN1CCO[C@H](C(=O)O)C1 [Compound C-44]
≤ 10 nM	≤ 10 nM	COc1nc(-c2cccc(-c3cccc(NC(=O)c4ccnn(C)c4=O)c3C)c2Cl)ccc1CNC1CCN(C(C)=O)C[C@@H]1O (stereo in doubt) [Compound C-69]
≤ 10 nM	10 to 100 nM	CCOC(=O)C1CN(Cc2ccc(-c3cccc(-c4cccc(NC(=O)c5ccnn(C)c5=O)c4C)c3Cl)nc2OC)C1 [Compound C-53]
≤ 10 nM	10 to 100 nM	COc1nc(-c2cccc(-c3cccc(NC(=O)c4ccnn(C)c4=O)c3Cl)c2Cl)ccc1CN1CC(O)(C(=O)O)C1 [Compound C-41]
≤ 10 nM	10 to 100 nM	COc1nc(-c2cccc(-c3cccc(NC(=O)c4ccnn(C)c4=O)c3Cl)c2Cl)c(F)cc1CN1CC(C(=O)O)C1 [Compound C-76]
≤ 10 nM	10 to 100 nM	COc1nc(-c2cccc(-c3cccc(NC(=O)c4ccnn(C)c4=O)c3Cl)c2Cl)ccc1CNCC(C)(C)C(=O)O [Compound C-35]
